Test results: patent US6087493A, “Porphyrin compounds as telomerase inhibitors” (Regents of the University of Texas System, priority 1998, dated 2000)

Columns and labels:
MCF7 cells [1] = assay: Nuclear localization of TMPyP4 in MCF7 cells; assay type: cell-based, human
Procedure: MCF7 cells were seeded at 5×10^5 cells per flask and cultured in the presence of 0, 50, or 100 μM TMPyP4 for 7 days with one exchange of medium. The cells were harvested with trypsin-EDTA, washed with PBS and counted using a Coulter counter. The cells were then pelleted by centrifugation at 700 g and lysed in a hypotonic solution (0.1×PBS);the resulting lysate was sedimented at 700 g for 10 min. The supernatant was removed and the pellet was dissolved in 0.5 ml of 2% SDS. Absorbance of the supernatants and pellet was measured at 423 nm. TMPyP4 diluted in 2% SDS containing 1 mg/ml salmon sperm DNA was used for the standard curve.
Several reports indicate that porphyrins localize specifically in tumor tissue, although sites of subcellular localization may vary widely with porphyrin structure and net charge (De Paolis et al., 1985). […] To gain insight into the subcellular distribution of cationic porphyrins, the inventors have cultured MCF7 cells with 0, 50, or 100 μM TMPyP4 for 7 days.

HeLa cells = assay: Chromosome fusion in HeLa cells; assay type: cell-based, human; conditions: 3 μM, 2-4 days
HeLa = assay: cells; assay type: cell-based, human; conditions: Homo sapiens; HeLa, MTT (n = 3 ± SEM); read-out: Cytotoxicity
DU145 = assay: Cytotoxicity (MTT) DU145; assay type: cell-based, human; conditions: Homo sapiens, DU-145; DU145 (prostate), 4-7 days; read-out: IC 50 cytotoxicity
Procedure: (§1) The cells were cultured in the presence of the porphyrins incubator for 4-7 days and then treated with 3-(4,5-dimethylthiazol-2-yl)-2,5-diphenyl-tetrazolium bromide (MTT). Formazan concentration was quantitated by absorbance at 570 nm.

BT-20 = assay: Cytotoxicity (MTT) BT-20; assay type: cell-based, human; conditions: Homo sapiens; BT-20 (breast), 4-7 days; read-out: IC 50 cytotoxicity
Procedure: as §1

[2] = test system: telomere length in MCF7 cells; assay: Telomere length analysis in MCF7 cells; assay type: cell-based, human; conditions: 1 and 10 μM, by day 8 (about 6 population doublings)
Procedure: DNA was extracted from a minimum of 5×10^6 cells by SDS, proteinase K treatment, then purified and quantitated as previously described (Strahl and Blackburn, 1991). Approximately 1 μg of total DNA was digested with Mse I; the digested DNA was size fractionated by agarose gel electrophoresis and Southern blotted. The blots were hybridized with a ^32 P-labeled 0.5 kb PCR™ DNA fragments composed of the telomere repeat d(TTAGGG), which served as a probe for the telomeres. The hybridized probe was detected by autoradiography and each lane on the film was analyzed by phosphoimage analysis (Molecular Dynamics).
Telomeres shorten at an average rate of 65-100 base pairs per cell division (Counter et al., 1992). To observe a significant effect of an agent on telomere length, e.g., shortening the telomeres by >1 kilobase in MCF7 cells (5.7 kbases), a minimum of […] population doubling times will be required.

[3] = mice; cited from earlier work
[4] = test system: DNA quadruplex in single-stranded template with four telomeric repeats; assay: DNA synthesis arrest assay (Taq DNA polymerase); assay type: biochemical
Procedure: This assay was a modification of that described by Weitzmann et al. (Wang and Patel, 1993). Briefly, primers (24 nM) labeled with [γ-^32 P] ATP were mixed with template DNA PQ74 (12 nM) in a Tris-HCl buffer (10 mM Tris, pH 8.0) containing 10 mM MgCl2 and heated at 90° C. for 4 min. After cooling at room temperature for 15 min, spermidine (to give 100 μM) and TMPyP4 (to give the concentrations indicated in the figure) were added. The primer extension reactions were initiated by adding dNTP (final concentration 100 μM) and Taq DNA polymerase (2.5 U/reaction, Boehringer Mannheim). The reactions were incubated at 55 C. (or otherwise as indicated) for 15 min, then stopped by adding an equal volume of stop buffer (95% formamide, 10 mM EDTA, 10 mM NaOH, 0.1% xylene cyanol, 0.1% bromophenol blue). The products were separated on a 12% polyacrylamide sequencing gel.
A single-stranded DNA template, which included four telomeric repeats, was taken, and an 18-base primer complementary to the […] was extended using Taq DNA polymerase.

MDA-231 = assay: Cytotoxicity (MTT) MDA-231; assay type: cell-based, human; conditions: Homo sapiens, MDA-MB-231; MDA-231 (breast), 4-7 days; read-out: IC 50 cytotoxicity
Procedure: as §1

MCF7 cells [5] = assay: Cell cycle analysis in MCF7 cells; assay type: cell-based, human
Procedure: The effects of TMPyP4 on the cell cycle were assessed by flow cytometry by measuring the percentage of cells in G1/G0, S, and G2/M phases, with and without treatment with the porphyrin. Cells were stained with 50 μg/ml propidium iodide in a hypotonic sodium citrate solution with 0.3% NP-40 and 1.0 mg/ml RNase-A at 1.0×10^6 cells/ml, vortexed and stained for 30 min at room temperature in the dark. Prior to flow cytometric measurements, samples were filtered through a 37 μm nylon mesh into 12×75 mm tubes and stored at 4° C. until analysis within 24 h. All samples were analyzed with an EPICS ELITE flow cytometer (Coulter Cytometry, Miami, Fla.) using a 15 m Watt argon ion laser operated at 6 Amps of power at 488 nm for fluorochrome excitation. Photomultiplier tube voltage was adjusted for each control sample to position the G0G1 to channel 240 on a 1024 channel presentation. The propidium iodide emission was collected through a 675 nm long pass filter. Histograms were analyzed for cell cycle compartments using MultiCycle-PLUS Version 3.0 (Phoenix Flow Systems, San Diego, Calif.). Histograms all had 50K events collected to maximize the statistical validity of the compartmental analysis.
The inventors examined whether the treatment of MCF7 cells with TMPyP4 affected the cell cycle.

MCF-7 = assay: Cytotoxicity (MTT) MCF-7; assay type: cell-based, human; conditions: Homo sapiens, MCF7; MCF-7 (breast), 4-7 days; read-out: IC 50 cytotoxicity
Procedure: as §1

[6] = test system: single-stranded sequence bearing four human telomeric repeats
Procedure: The DNA was labeled with 32p at the 5'-end and stored in buffer (10 mM Tris-HCl, 1 mM EDTA, pH 8.0) at 3000 cpm/μl. For each photocleavage reaction, 10 μl of DNA (~5 ng) was mixed with 10 μl of 200 mM KCl, boiled for 10 min, and cooled to room temperature. For the control studies, 10 μl of distilled water was added instead of the KCl solution. The mixtures were transferred to a 96 well plate, 2 μl of 1 μM aqueous TMPyP4 solution added, and the samples exposed to a 24 W fluorescent day-light under a glass filter for various periods of time. The reactions were stopped with 100 μl of calf thymus DNA (0.1 μg/μl), and after phenol-chloroform extraction, the samples were subjected to strand breakage treatment and ethanol precipitation (Han and Hurley, 1996).
A single-stranded sequence bearing four human telomeric repeats was treated with TMPyP4 and then exposed to light.

human telomerase = human telomerase (Homo sapiens, UniProt O14746); assay: Telomerase inhibition, primer extension assay in HeLa cell extract; assay type: biochemical
LNCap = assay: Cytotoxicity (MTT) LNCap; assay type: cell-based, human; conditions: Homo sapiens; LNCap (prostate), 4-7 days; read-out: IC 50 cytotoxicity
Procedure: as §1

Raji = assay: Cytotoxicity (MTT) Raji; assay type: cell-based, human; conditions: Homo sapiens; Raji (lymphoma), 4-7 days; read-out: IC 50 cytotoxicity
Procedure: as §1

Daudi = assay: cells; assay type: cell-based, human; conditions: Homo sapiens; Daudi (lymphoma), 4-7 days; read-out: IC 50 cytotoxicity
Procedure: as §1

in vitro = assay type: cell-based; conditions: human, hs578bst cells; HS578 Bst, Thy (n = 3 ± SEM); read-out: Cytotoxicity
Procedure: Cytotoxicity of the compounds to human breast cancer cells in vitro was assessed using a panel of cell lines representing estrogen receptor-positive (BT20, MCF-7m), and a pair of estrogen receptor-negative, transformed breast (11S578t) and normal breast (HS578Bst) cells.
Thy: tritiated […] assay (n = 3 ± SEM)

human telomerase, sequence (O14746 whole entry): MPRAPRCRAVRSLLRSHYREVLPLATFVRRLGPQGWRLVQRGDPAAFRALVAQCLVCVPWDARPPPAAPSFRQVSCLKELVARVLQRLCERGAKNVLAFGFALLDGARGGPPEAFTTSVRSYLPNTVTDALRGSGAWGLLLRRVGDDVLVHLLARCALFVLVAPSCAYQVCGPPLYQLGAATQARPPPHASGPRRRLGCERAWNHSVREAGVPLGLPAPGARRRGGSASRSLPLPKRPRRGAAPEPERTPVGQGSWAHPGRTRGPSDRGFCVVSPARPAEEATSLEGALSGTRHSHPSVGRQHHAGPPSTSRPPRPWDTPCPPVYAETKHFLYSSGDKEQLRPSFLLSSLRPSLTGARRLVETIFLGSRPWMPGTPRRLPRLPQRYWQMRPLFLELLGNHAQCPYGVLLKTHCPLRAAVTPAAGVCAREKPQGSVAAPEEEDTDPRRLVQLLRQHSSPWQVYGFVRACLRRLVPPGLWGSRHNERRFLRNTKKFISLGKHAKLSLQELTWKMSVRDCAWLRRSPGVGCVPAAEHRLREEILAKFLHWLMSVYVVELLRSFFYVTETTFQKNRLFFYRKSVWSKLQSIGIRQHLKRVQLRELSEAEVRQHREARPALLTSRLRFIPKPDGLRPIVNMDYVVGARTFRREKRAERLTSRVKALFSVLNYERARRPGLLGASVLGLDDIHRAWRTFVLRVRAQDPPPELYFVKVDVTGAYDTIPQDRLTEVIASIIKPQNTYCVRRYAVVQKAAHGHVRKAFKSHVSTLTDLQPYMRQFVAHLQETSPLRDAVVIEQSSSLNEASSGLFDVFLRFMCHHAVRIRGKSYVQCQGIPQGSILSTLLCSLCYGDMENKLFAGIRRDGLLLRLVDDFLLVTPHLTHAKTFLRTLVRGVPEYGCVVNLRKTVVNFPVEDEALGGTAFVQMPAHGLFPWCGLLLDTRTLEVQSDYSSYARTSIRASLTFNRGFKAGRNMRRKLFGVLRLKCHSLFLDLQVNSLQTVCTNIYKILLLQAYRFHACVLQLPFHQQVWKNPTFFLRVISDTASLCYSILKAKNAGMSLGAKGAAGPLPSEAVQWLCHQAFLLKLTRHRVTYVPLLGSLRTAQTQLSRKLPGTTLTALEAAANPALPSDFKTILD

C[n+]1ccc(-c2c3nc(c(-c4cc[n+](C)cc4)c4ccc([nH]4)c(-c4cc[n+](C)cc4)c4nc(c(-c5cc[n+](C)cc5)c5ccc2[nH]5)C=C4)C=C3)cc1 [TMPyP4, 5,10,15,20-tetra-(N-methyl-4-pyridyl)porphine]
cytoplasm as % of nuclear fraction concentration (MCF7 cells [1]; 50 μM TMPyP4, 7 days): 3.3% | porphyrin concentration in the nuclear pellet (MCF7 cells [1]; 50 μM TMPyP4, 7 days): 1.39 nmoles/10^6 cells | porphyrin in cytoplasm (MCF7 cells [1]; 50 μM TMPyP4, 7 days): 47.3 pmoles/10^6 cells | cytoplasm as % of nuclear pellet concentration (MCF7 cells [1]; 100 μM TMPyP4, 7 days): 5.5% | porphyrin concentration in the nuclear fraction (MCF7 cells [1]; 100 μM TMPyP4, 7 days): 7.81 nmoles/10^6 cells | porphyrin in cytoplasmic fraction (MCF7 cells [1]; 100 μM TMPyP4, 7 days): 434 pmoles/10^6 cells | calculated concentration in the nucleus (MCF7 cells [1]; assuming nucleus 1/100 of cell volume): 1.4 to 78 mM | calculated concentration in the cytoplasm (MCF7 cells [1]; assuming volume of 10^6 cells 10-100 μl): 0.47 to 434 µM | fused chromosomes (HeLa cells): number of fused chromosomes was increased in comparison with the untreated controls | IC50 (HeLa): 18.7 ± 3.89 µM | IC50 (DU145): 93.6 µM | IC50 (BT-20): 106 µM | effect on telomere shortening [2]: No detectable effects on telomere shortening | accumulation in tumor tissue [3]: accumulation in tumor tissue in mice | melting temperature of the quadruplex [4]: increased the melting temperature of the quadruplex | pause site band intensity ([4]; Tris buffer without K+ or Na+): more intense in a concentration-dependent manner | persistence of bands at the pause site ([4]; temperature dependence): up to 65 °C | IC50 (MDA-231): 44 µM | G2/M phase fraction (MCF7 cells [5]; 100 μM, days 4, 8 and 15): time-dependent gradual increase in the G2/M phase | MCF7 cells arrested in G2/M (MCF7 cells [5]; long-term exposure): not more than 32% | IC50 (MCF-7): 49.6 µM | photocleavage selectivity [6]: clear selectivity for cleavage at the 5'-ApG-3' step at G1 and G7, and 5'-GpT-3' step at G6 and G12 | % Inhibition of telomerase (human telomerase; 25 µM): 60% | IC50 (human telomerase; IC50 telomerase): 6.5 ± 1.4 µM | IC50 (human telomerase; IC50 telomerase (text)): 6.5 ± 1.4 µM | IC50 (human telomerase; Telomerase Inhibition): 15 µM | inhibition at 25 µM (human telomerase; read-out: amount of inhibition of telomerase): 72% | IC50 (LNCap): 22.8 µM | IC50 (Raji): 11.9 µM | IC50 (Daudi): 3.1 µM | CC50 (in vitro): > 100 µM
